Laboratory results published in paper PMC9585581, “Developing Photoaffinity Probes for Dopamine Receptor D2 to Determine Targets of Parkinson’s Disease Drugs” (ACS Chemical Neuroscience, 2022).
“Also recorded” adds a separate entry of the source.

What was measured:
rat whole brain proteins = assay: Rat whole brain photo-cross-linking, biotin-streptavidin pulldown and LC/MS proteomics (interactome); assay type: binding, Sprague Dawley rat; conditions: probe 50 μM; rat whole brain minus olfactory bulb
Description: Whole brain assays were designed to assay the binding partners of 5 and 7, as well as a control for the inherent binding of the benzophenone cross-linker using molecule 16 (Figure 7). […] We chose this methodology to maximize the amount of unique hits we were likely to record. A drawback to this assay, however, is that GPCRs need highly specific extraction/purification conditions to be detected by LC-MS (or other protein detection methodologies) at the end point. Thus, by biasing our assay toward a “wide lens” to record a picture of diverse interactions, we missed the specific focus necessary to observe DRD2 and structurally related GPCRs, and we were unable to directly observe DRD2 in the proteomic analysis.
To perform the assay, the whole brain minus the olfactory bulb from an adult female Sprague Dawley rat was homogenized and treated with probes or linker control 16 at a 50 μM concentration and photo-cross-linked. A streptavidin resin was used to deplete endogenous biotin and then clicked with azido biotin, followed by streptavidin pulldown. The streptavidin beads were processed by tryptic digest, followed by LC/MS proteomic analysis. […]
To prepare the homogenate, adult rat brain tissue was microdissected and the olfactory bulb was discarded and sliced into 1 mm pieces. […] The total protein concentration was determined via BCA assay (Pierce) and adjusted to 6 mg/mL. […]

human DRD2, long form = biological target: T1, human DRD2, long form (Homo sapiens, UniProt P14416); assay: Intracellular Ca2+ mobilization assay (HEK293T stably expressing DRD2, chimeric G-protein Gqi5, calcium dye, confocal microscopy); assay type: cell-based; conditions: for EC50: Ca assay, HEK293T stably expressing human DRD2 and chimeric G-protein, Hill slope of 1.0; for activity in calcium flux assay (in words): calcium flux bioactivity
T1 construct: expressed in transfected cells; Gqi5 chimera transiently transfected
T1 sequence (P14416 whole entry): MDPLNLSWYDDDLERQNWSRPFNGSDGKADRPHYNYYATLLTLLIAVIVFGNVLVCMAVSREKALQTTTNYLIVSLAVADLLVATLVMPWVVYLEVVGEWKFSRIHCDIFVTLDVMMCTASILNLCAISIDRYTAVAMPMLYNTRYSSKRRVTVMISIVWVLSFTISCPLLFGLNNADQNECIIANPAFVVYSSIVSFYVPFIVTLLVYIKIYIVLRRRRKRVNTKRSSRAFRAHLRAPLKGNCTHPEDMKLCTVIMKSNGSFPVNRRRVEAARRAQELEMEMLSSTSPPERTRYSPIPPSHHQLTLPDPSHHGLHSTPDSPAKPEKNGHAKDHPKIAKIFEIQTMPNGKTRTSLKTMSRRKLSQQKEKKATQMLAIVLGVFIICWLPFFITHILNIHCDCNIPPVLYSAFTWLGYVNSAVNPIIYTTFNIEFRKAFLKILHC
Description: Intracellular calcium measurement was used to determine G-protein-mediated signaling by DRD2. Because DRD2 is linked to the G-protein subtype Gi, agonist binding inhibits adenyl cyclase activity.[42] To mitigate this effect, we created an HEK293T cell line stably expressing human DRD2, long form, and a chimeric G-protein, Gqi, which alters the DRD2 receptor’s G-protein coupling so that signaling can occur through Gq, resulting in an intracellular calcium flux.[43] The assay is performed by first loading the cell line with a calcium-sensing dye. Binding of the ligand to the receptor results in an influx of calcium to the cytoplasm, which can be characterized in real time by monitoring the increase in dye fluorescence with confocal microscopy.
Figure 2 Intracellular calcium flux assay. HEK293T cell line stably expressing constructs for human DRD2 and a chimeric G-protein is loaded with calcium-sensing dye, […]. After dosing the probe, confocal microscopy is used to determine the calcium flux in the cell by change in dye fluorescence.
A stable HEK293T-derived cell line-expressing DRD2-Strep Tag II fusion was maintained in DMEM supplemented with 10% FBS, 100 U/mL penicillin, and 100 μg/mL streptomycin in a humidified atmosphere at 37 °C in 5% CO2. On day 1, cells were plated at a density of 4 × 10^4 cells/cm^2 in a poly-D-lysine-coated 18-well chambered coverslip (Ibidi). The following day (day 2), cells were transfected with a 10× solution of 3:1 mixture of Gqi5/Optifect Transfection Reagent (Thermo) in unsupplemented DMEM. On day 3, the transfection media was removed and calcium-sensitive dye loading was performed following the protocol of the Fluo-4 Direct Calcium Assay Kit (Invitrogen). 5× drug stimulation solutions were prepared in filter-sterilized HBSS. Once Fluo-4 loading was complete, a time series acquisition at a rate of 1 fps was recorded using a Zeiss LSM 980 with Airyscan 2. Basal fluorescence was recorded for 20 s, followed by the addition of drug solution to a 1× final concentration and acquisition for an additional 40 s. Results in the form of fold fluorescence increase over basal were averaged over 50 cells in ImageJ (NIH), and GraphPad Prism was used for the analysis of data.

## C#CCOc1ccc(C(=O)c2ccc(CNCCc3cccc4c3CC(=O)N4)cc2)cc1 [Compound 5, 4-(2-((4-(4-(Prop-2-yn-1-yloxy)benzoyl)benzyl)amino)ethyl)indolin-2-one]
Rat whole brain proteins
  protein hits of the pulldown (in words): muscarinic acetylcholine receptor M1 and CB1 cannabinoid receptor-interacting protein 1; also recorded: bound other protein networks including the retrograde endocannabinoid signaling pathway, neuronal nitric oxide synthase, GABA receptor components, and muscarinic acetylcholine receptor M1
Human DRD2, long form
  EC50: 1670 nM
  activity in calcium flux assay (in words): low micromolar potency
Human DRD2, long form; calcium assay, 5 vs ropinirole
  difference in potency of probe vs parent compound: ~10 ×

## C#CCOc1ccc(C(=O)c2ccc(CN[C@H]3CCc4nc(N)sc4C3)cc2)cc1 [Compound 7, (S)-(4-(((2-Amino-4,5,6,7-tetrahydrobenzo[d]thiazol-6-yl)amino)methyl)phenyl)(4-(prop-2-yn-1-yloxy)phenyl)methanone]
Rat whole brain proteins
  protein hits of the pulldown (in words): bound other protein networks including the retrograde endocannabinoid signaling pathway, neuronal nitric oxide synthase, GABA receptor components, and muscarinic acetylcholine receptor M1
Human DRD2, long form
  EC50: 2190 nM
  activity in calcium flux assay (in words): low micromolar potency
